Data reported in patent publication US20080242681A1, “N-4-(6-(Hetero)Aryl-Pyrimidin-4-Ylaminophenyl)-Benzenesulfonamides as Kinase Inhibitors” (Altana Pharma AG, priority 2004, published 2008).
Counter-ions that a name gives are not always drawn.

molecular target: T1, PKCη (Homo sapiens, UniProt P24723); test: Protein Kinase C η assay (SPA); type: biochemical; details: human recombinant PKCη from Sf21 insect cells, read-out: IC50, inhibition of PKC η
T1 construct: made in house; host or cells: Sf21 insect cells
T1 sequence (P24723 whole entry): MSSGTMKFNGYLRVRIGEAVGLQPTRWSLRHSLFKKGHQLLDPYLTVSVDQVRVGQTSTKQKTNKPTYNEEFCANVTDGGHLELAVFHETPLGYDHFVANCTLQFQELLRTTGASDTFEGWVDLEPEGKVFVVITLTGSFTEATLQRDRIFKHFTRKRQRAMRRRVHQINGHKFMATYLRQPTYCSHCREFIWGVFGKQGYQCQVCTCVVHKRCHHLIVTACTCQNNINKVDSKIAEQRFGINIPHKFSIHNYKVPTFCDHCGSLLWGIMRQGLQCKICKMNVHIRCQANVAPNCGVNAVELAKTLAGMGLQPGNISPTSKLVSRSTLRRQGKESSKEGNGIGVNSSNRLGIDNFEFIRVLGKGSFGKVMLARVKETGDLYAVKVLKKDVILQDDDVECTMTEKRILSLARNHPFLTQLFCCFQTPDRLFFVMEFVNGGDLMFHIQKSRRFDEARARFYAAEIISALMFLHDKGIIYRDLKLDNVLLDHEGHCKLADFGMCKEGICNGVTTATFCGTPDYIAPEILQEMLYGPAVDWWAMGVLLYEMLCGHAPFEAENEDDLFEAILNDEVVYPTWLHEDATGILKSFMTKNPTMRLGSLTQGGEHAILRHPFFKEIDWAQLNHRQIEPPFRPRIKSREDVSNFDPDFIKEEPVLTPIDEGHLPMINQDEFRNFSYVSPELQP
Experimental: (§1) The compounds of formula 1 are tested for their activity on different protein kinases and PKC isoforms using a scintillation proximity assay (SPA, Amersham International plc). ^33P-labeled peptides are captured onto streptavidin coated yttrium silicate SPA beads. β-particles, emitted from the captured ^33P-labeled substrate in close proximity to the bead are able to excite the scintillant, resulting in the generation of quantifiable light. The assay is performed in a 96-well polystyrene microtiterplate (1450-514, Isoplates, Wallac, Turku, Finland). The reaction mixture (50 μl) contains 10 μl of the test compound together with 10 μl of the relevant kinase, diluted in the relevant dilution buffer, 5 μl of 10 μM phorbol myristate acetate (PMA) in H2O, 5 μl of 1.6 mM phosphatidylserine (Sigma-Aldrich Chemie GmbH, Stein-heim, Germany) in 20 mM Tris/HCL buffer pH 7.4, 5 μl of 0.3% BSA in H2O, 5 μl of 30 μM relevant substrate and 10 μl of 5 μM ATP and 0.1 μCi of ^33P-ATP (Amersham, Freiburg, Germany) in 200 mM Tris/HCL pH 7.5 and 200 mM MgCl2. Incubation is performed for 40 min at room temperature (RT) without shaking. Reaction is stopped by adding 150 μl of cold stop solution containing 10 mM ATP, 5 mM EGTA pH 7.5, 0.1% Triton X-100 and 0.2 mg streptavidin coated yttrium silicate SPA beads (Amersham, RPNQ 0012). The sealed plate is incubated for 60 min at RT. Thereafter the MTP is counted in a Microbeta Jet (Wallac). IC50 measurement is performed on a routine basis by incubation a serial dilution of inhibitor at concentrations ranging between 0.01 and 100 μM according to the method described above. Background values are the signals of the reaction mixture without addition of the relevant kinase and are subtracted from all values. 100% values are the signals of the reaction mixture without addition of inhibitors.
(§2) Dependent on the efficacy of the inhibitors In the various test systems, corresponding IC50 values are calculated from concentration-inhibition curves by nonlinear regression analysis using the program GraphPad Prism (GraphPad Software Inc., San Diego, Calif.).
(§3) Human recombinant nickel bead purified PKCη from Sf21 insect cells is used under the assay conditions as described above (Section A.1). The enzyme is diluted in PKC dilution buffer containing 1 mM Hepes pH 7.4, 0.5 mM DTT and 0.001% Triton X-100. The kinase reaction is performed with the biotinylated PKCη pseudosubstrate solved in H2O. The examples 52, 55, 118 and 135 inhibit PKC η in this assay with an IC50 between 6 and 50 μM.

IC50 [µM] | Structure (SMILES)
6 to 50 | COc1ccc(S(=O)(=O)Nc2ccc(Nc3cc(-c4ccc(OCCN5CCN(C)CC5)cc4)ncn3)cc2)cc1 [Example 52, 4-Methoxy-N-[4-(6-{4-[2-(4-methyl-piperazin-1-yl)-ethoxy]-phenyl}-pyrimidin-4-ylamino)-phenyl]-benzenesulfonamide]
6 to 50 | Cc1ccc(S(=O)(=O)Nc2ccc(Nc3cc(-c4ccc(OCCCN5CCN(C)CC5)cc4)ncn3)cc2)cc1 [Example 55, 4-Methyl-N-[4-(6-{4-[3-(4-methyl-piperazin-1-yl)-propoxy]-phenyl}-pyrimidin-4-ylamino)-phenyl]-benzenesulfonamide]
6 to 50 | Cc1ccc(S(=O)(=O)Nc2ccc(Nc3cc(-c4ccc5c(ccn5CCCN(C)C)c4)ncn3)cc2)cc1 [Example 135, N-(4-{6-[1-(3-Dimethylamino-propyl)-1H-indol-5-yl]-pyrimidin-4-ylamino}-phenyl)-4-methyl-benzenesulfonamide]

molecular target: T2, PKCβ1 (Homo sapiens, UniProt P05771); test: Protein Kinase Cβ1 assay (SPA); type: biochemical; details: human recombinant PKCβ1, SPA, biotinylated PKCα pseudosubstrate, 0.5 mM CaCl2; read-out: IC50, inhibition of PKC β1
T2 construct: purchased Panvera
T2 sequence (P05771 whole entry): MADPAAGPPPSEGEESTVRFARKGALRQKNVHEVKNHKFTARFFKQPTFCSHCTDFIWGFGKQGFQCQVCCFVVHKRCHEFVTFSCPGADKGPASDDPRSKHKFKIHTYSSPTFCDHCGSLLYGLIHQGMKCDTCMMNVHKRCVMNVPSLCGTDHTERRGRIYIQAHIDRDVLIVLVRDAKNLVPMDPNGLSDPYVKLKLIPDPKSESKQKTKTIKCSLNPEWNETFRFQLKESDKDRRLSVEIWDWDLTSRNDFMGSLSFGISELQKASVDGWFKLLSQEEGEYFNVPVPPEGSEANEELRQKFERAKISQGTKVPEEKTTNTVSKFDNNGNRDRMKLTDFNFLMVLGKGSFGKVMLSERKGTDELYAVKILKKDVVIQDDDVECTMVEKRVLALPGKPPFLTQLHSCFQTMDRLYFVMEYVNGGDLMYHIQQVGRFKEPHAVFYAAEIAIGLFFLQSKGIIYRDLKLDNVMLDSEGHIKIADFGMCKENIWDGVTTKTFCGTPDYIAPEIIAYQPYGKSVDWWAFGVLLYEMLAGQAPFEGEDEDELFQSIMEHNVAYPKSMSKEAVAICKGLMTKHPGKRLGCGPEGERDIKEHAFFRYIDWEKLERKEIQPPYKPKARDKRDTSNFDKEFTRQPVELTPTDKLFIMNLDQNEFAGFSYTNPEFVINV
Experimental: as §1, §2
Human recombinant PKCβ1 was obtained from Panvera and is used under the assay conditions as described above (Section A.1). The enzyme is diluted in PKC dilution buffer containing 1 mM Hepes pH 7.4, 0.5 mM DTT and 0.001% Triton X-100. The assay additionally contains 0.5 mM CaCl2. The kinase reaction is performed with the biotinylated PKCα pseudosubstrate solved in H2O. The examples 29, 45, 52, 128 and 139 inhibit PKC β1 in this assay with an IC50 between 2 and 40 μM.

IC50 [µM] | Structure (SMILES)
2 to 40 | COc1ccc(-c2cc(Nc3ccc(NS(=O)(=O)c4ccccc4F)cc3)ncn2)cc1 [Example 29, 2-Fluoro-N-{4-[6-(4-methoxy-phenyl)-pyrimidin-4-ylamino]-phenyl}-benzenesulfonamide]
2 to 40 | COc1ccc(S(=O)(=O)Nc2ccc(Nc3cc(-c4ccc(OCCCN5CCOCC5)cc4)ncn3)cc2)cc1 [Example 45, 4-Methoxy-N-(4-{6-[4-(3-morpholin-4-yl-propoxy)-phenyl]-pyrimidin-4-ylamino}-phenyl)-benzenesulfonamide]
2 to 40 | COc1ccc(S(=O)(=O)Nc2ccc(Nc3cc(-c4ccc(OCCN5CCN(C)CC5)cc4)ncn3)cc2)cc1 [Example 52, 4-Methoxy-N-[4-(6-{4-[2-(4-methyl-piperazin-1-yl)-ethoxy]-phenyl}-pyrimidin-4-ylamino)-phenyl]-benzenesulfonamide]
2 to 40 | CN(C)CCn1ccc2cc(-c3cc(Nc4ccc(NS(=O)(=O)c5c(F)cccc5F)cc4)ncn3)ccc21 [Example 139, N-(4-{6-[1-(2-Dimethylamino-ethyl)-1H-indol-5-yl]-pyrimidin-4-ylamino}-phenyl)-2,6-difluoro-benzenesulfonamide]

molecular target: T3, PKCθ (Homo sapiens, UniProt Q04759); test: Protein Kinase C θ assay (SPA); type: biochemical; details: human recombinant PKCθ from Sf21 insect cells, read-out: IC50, inhibition of PKC θ
T3 construct: made in house; host or cells: Sf21 insect cells
T3 sequence (Q04759 whole entry): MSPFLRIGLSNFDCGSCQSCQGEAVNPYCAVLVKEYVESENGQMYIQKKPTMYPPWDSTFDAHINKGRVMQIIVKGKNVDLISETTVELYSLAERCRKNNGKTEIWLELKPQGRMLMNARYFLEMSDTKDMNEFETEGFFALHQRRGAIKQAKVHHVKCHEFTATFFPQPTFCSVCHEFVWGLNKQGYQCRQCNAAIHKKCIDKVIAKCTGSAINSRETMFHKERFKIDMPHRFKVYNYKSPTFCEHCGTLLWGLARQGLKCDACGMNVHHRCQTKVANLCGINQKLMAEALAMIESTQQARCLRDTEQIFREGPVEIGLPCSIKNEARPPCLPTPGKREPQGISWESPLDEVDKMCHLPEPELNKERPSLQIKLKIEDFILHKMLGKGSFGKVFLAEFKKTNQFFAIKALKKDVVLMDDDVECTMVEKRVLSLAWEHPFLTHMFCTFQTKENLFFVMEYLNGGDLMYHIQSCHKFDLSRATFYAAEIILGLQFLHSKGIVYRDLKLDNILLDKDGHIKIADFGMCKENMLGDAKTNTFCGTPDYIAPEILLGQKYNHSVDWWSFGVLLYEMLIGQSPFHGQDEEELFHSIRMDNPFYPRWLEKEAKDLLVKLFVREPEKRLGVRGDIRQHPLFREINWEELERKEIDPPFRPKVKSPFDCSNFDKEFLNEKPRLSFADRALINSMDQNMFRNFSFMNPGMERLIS
Experimental: as §1, §2
as §3, with “PKCθ” for “PKCη”, “8, 22, 46, 115,” for “52, 55,”, “161” for “135”, “9” for “η”, “IC50<1” for “IC50 between 6 and 50”

IC50 [µM] | Structure (SMILES)
< 1 | O=S(=O)(Nc1ccc(Nc2cc(-c3ccccc3)ncn2)cc1)c1c(F)cccc1F [Example 8, 2,6-Difluoro-N-[4-(6-phenyl-pyrimidin-4-ylamino)-phenyl]-benzenesulfonamide]
< 1 | CC1Cc2cc(-c3cc(Nc4ccc(NS(=O)(=O)c5c(F)cccc5F)cc4)ncn3)ccc2O1 (stereo not shown) [Example 115, 2,6-Difluoro-N-{4-[6-(2-methyl-2,3-dihydro-benzofuran-5-yl)-pyrimidin-4-ylamino]-phenyl}-benzenesulfonamide]

More lines, now with the values behind:

Structure (SMILES) | IC50 [µM]
COc1ccc(S(=O)(=O)Nc2ccc(Nc3cc(-c4cccc(OCCCN5CCOCC5)c4)ncn3)cc2)cc1 [Example 46, 4-Methoxy-N-(4-{6-[3-(3-morpholin-4-yl-propoxy)-phenyl]-pyrimidin-4-ylamino}-phenyl)-benzenesulfonamide] | < 1
O=S(=O)(Nc1ccc(Nc2cc(-c3ccc4c(ccn4CCN4CCCC4)c3)ncn2)cc1)c1ccc(F)c(Cl)c1 [Example 161, 3-Chloro-4-fluoro-N-(4-{6-[1-(2-pyrrolidin-1-yl-ethyl)-1H-indol-5-yl]pyrimidin-4-ylamino}-phenyl)-benzenesulfonamide formic acid salt] | < 1

molecular target: T4, PKCε (Homo sapiens, UniProt Q02156); test: Protein Kinase C ε assay (SPA); type: biochemical; details: human recombinant PKCε, PKCη pseudosubstrate, read-out: IC50, inhibition of PKC ε
T4 construct: purchased Panvera
T4 sequence (Q02156 1-737): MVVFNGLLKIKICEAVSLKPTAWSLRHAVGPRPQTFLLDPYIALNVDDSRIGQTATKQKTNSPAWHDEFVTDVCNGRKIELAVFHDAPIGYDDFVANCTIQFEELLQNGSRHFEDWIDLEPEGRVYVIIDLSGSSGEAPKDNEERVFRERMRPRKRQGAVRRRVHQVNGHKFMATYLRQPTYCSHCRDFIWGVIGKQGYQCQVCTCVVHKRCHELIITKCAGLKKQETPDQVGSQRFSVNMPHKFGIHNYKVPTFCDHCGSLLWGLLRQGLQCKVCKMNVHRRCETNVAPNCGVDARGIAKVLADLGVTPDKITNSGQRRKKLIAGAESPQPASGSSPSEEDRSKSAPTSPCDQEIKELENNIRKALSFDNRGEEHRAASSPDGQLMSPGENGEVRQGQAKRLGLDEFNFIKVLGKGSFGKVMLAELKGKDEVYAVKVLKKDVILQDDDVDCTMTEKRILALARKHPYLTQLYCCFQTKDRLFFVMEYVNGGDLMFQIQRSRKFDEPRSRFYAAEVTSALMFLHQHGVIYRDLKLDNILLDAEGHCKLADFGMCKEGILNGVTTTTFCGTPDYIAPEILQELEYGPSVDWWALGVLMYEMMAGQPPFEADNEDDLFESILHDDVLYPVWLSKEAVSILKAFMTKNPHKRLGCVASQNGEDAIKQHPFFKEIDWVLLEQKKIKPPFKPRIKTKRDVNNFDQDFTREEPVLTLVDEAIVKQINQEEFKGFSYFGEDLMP
Experimental: as §1, §2
Human recombinant PKCε was obtained from Panvera and is used under the assay conditions as described above (Section A.1). The enzyme is diluted in PKC dilution buffer containing 1 mM Hepes pH 7.4, 0.5 mM DTT and 0.001% Triton X-100. The kinase reaction is performed with the biotinylated PKCη pseudosubstrate solved in H2O.

IC50 [µM] | Structure (SMILES)
4 to 21 | CC(=O)c1ccc(-c2cc(Nc3ccc(NS(=O)(=O)c4c(F)cccc4F)cc3)ncn2)cc1 [Example 27, N-{4-[6-(4-Acetyl-phenyl)-pyrimidin-4-ylamino]-phenyl}-2,6-difluoro-benzenesulfonamide]
4 to 21 | O=S(=O)(Nc1ccc(Nc2cc(-c3ccc(OCCCN4CCOCC4)cc3)ncn2)cc1)c1c(F)cccc1F [Example 38, 2,6-Difluoro-N-(4-{6-[4-(3-morpholin-4-yl-propoxy)-phenyl]-pyrimidin-4-ylamino}-phenyl)-benzenesulfonamide]
4 to 21 | CN1CCN(CCOc2ccc(-c3cc(Nc4ccc(NS(=O)(=O)c5c(F)cccc5F)cc4)ncn3)cc2)CC1 [Example 47, 2,6-Difluoro-N-[4-(6-{4-[2-(4-methyl-piperazin-1-yl)-ethoxy]-phenyl}-pyrimidin-4-ylamino)-phenyl]-benzenesulfonamide]

molecular target: T5, PKCα (Homo sapiens, UniProt P17252); test: Protein Kinase Cα assay (SPA); type: biochemical; details: human recombinant PKCα, biotinylated PKCα pseudosubstrate, 0.5 mM CaCl2, read-out: IC50, inhibition of PKCα
T5 construct: purchased Panvera (Invitrogen GmbH, Karlsruhe, Germany)
Experimental: as §1, §2
Human recombinant PKCα was obtained from Panvera (Invitrogen GmbH, Karlsruhe, Germany) and is used under the assay conditions as described above (Section A.1). The enzyme is diluted in PKC dilution buffer containing 1 mM Hepes pH 7.4, 0.5 mM DTT and 0.001% Triton X-100. The assay additionally contains 0.5 mM CaCl2. The kinase reaction is performed with the biotinylated PKCα pseudosubstrate solved in H2O.

IC50 [µM] | Structure (SMILES)
1 to 18 | O=S(=O)(Nc1ccc(Nc2cc(-c3cccc4ccccc34)ncn2)cc1)c1c(F)cccc1F [Example 16, 2,6-Difluoro-N-[4-(6-naphthalen-1-yl-pyrimidin-4-ylamino)-phenyl]-benzenesulfonamide]
1 to 18 | O=S(=O)(Nc1ccc(Nc2cc(-c3ccc(OCCN4CCOCC4)cc3)ncn2)cc1)c1c(F)cccc1F [Example 37, 2,6-Difluoro-N-(4-{6-[4-(2-morpholin-4-yl-ethoxy)-phenyl]-pyrimidin-4-ylamino}-phenyl)-benzenesulfonamide]
1 to 18 | O=S(=O)(Nc1ccc(Nc2cc(-c3ccc4[nH]ccc4c3)ncn2)cc1)c1c(F)cccc1F [Example 119, 2,6-Difluoro-N-{4-[6-(1H-indol-5-yl)-pyrimidin-4-ylamino]-phenyl}-benzenesulfonamide]
1 to 18 | O=S(=O)(Nc1ccc(Nc2cc(-c3ccc4[nH]ccc4c3)ncn2)cc1)c1ccccc1F [Example 120, 2-Fluoro-N-{4-[6-(1H-indol-5-yl)-pyrimidin-4-ylamino]-phenyl}-benzenesulfonamide]
1 to 18 | CN1CCN(CCn2ccc3cc(-c4cc(Nc5ccc(NS(=O)(=O)c6ccc(F)cc6F)cc5)ncn4)ccc32)CC1 [Example 150, 2,4-Difluoro-N-[4-(6-{1-[2-(4-methyl-piperazin-1-yl)-ethyl]-1H-indol-5-yl}-pyrimidin-4-ylamino)-phenyl]-benzenesulfonamide formic acid salt]
